Results: patent publication US20120208776A1 (priority 2002, published 2012)
Read-outs that look alike come from different tables or passages of the source.

What was measured:
cyclin D1 promoter = assay: Cyclin D1 reporter assay (luciferase); format: cell-based, human; conditions: MDA-MB-453, 24 h
Method: The cyclin D1 promoter luciferase reporter plasmid, 1745CD1LUC, was prepared by Dr. R. Pestell (Albert Einstein Cancer Center, New York, N.Y.). The method used for transient transfection reporter assays was previously described (Soh et al., Novel roles of specific isoforms of protein kinase C in activation of the c-fos serum response element. Molecular and Cellular Biology, 19:1313-24, 1999). Using lipofectin, triplicate samples of MDA-MB-453 breast cancer cells (1×10^5 cells in 35-mm plates) were co-transfected using DNA of the indicated reporter plasmid (1 μg) and the β-gal plasmid as an internal control (10 μg of the pCMV-b-gal plasmid) in opti-MEM 1 medium (Life Technologies, Inc.). After 24 h, the medium was replaced with serum-free medium containing the indicated concentrations of actein. After 24 h, cells were harvested, and luciferase activity was determined with the luciferase assay system (Promega Corp. Madison, Wis.); β-gal activities were determined with the β-gal enzyme assay system (Promega). Luciferase activities were normalized to β-gal activities, to correct for differences in transfection efficiency.

MCF7 cells = assay: Cell proliferation, cell count (Coulter Counter); format: cell-based, human; conditions: for IC50: Homo sapiens, MCF7 cells, read-out: IC50
[1] = system: cyclin D1 mRNA in MCF7 cells; assay: RT-PCR of mRNA; format: cell-based, human
Method: FIG. 13 illustrates the effects of actein on cyclin D1 mRNA in MCF7 cells (RT-PCR). MCF7 cells were treated with DMSO or actein for 3, 10, or 24 h. RNA was isolated and analyzed by RT-PCR, using primers for cyclin D1 and actin (control). The staining intensities of the visualized blots were quantified using NIH image software. The relative band intensities were determined by comparing treated samples with untreated controls. These values were then normalized (fold), using β-actin as an internal control.

[2] = Animal wellness, histopathological examination, tolerated dose; format: in vivo, Sprague-Dawley rats; conditions: actein 35.7 mg/kg; 24 hours
Method: A sample of each mammary tumor was collected, frozen in liquid nitrogen and kept at −70° C.
Analysis by microscopy: Histopathological examination of H&E and H&E/Oil Red O stained sections of control and treated tissues obtained 6 or 24 hours after treatment were performed. Tissues were embedded in OCT (optimal cutting temperature compound to enable cryosectioning of the sample).
Livers were embedded in OCT (optimal cutting temperature compound to enable cryosectioning of the sample) and stained with haematoxylin and eosin (H and E). All samples were visualized with a Zeiss Axioplan 2 microscope (Carl Zeiss Inc., Thornwood, N.Y.) and images were obtained with a Nikon Coolpix 5000 (Nikon Instruments, Melville, N.Y.) camera.

Na^+-K^+-ATPase = assay: Enzymatic assay of adenosine 5′-triphosphatase; format: biochemical; conditions: 20 μM
Method: Enzymatic assay of adenosine 5′-triphosphatase. The enzymatic assay of ATPase (adenosine 5′-triphosphatase, EC 3.6.1.3) followed the Sigma Prod. […] [P] was determined by the Taussky-Shorr method.

SMILES | cyclin D1 promoter activity (cyclin D1 promoter; 20 μg/ml) [fold] | cyclin D1 promoter activity (cyclin D1 promoter; 40 μg/ml) [fold] | IC50 (MCF7 cells; 96 h) [µg/mL] | IC50 (MCF7 cells; 96 h, value in parentheses) [µM] | cells alive (MCF7 cells; MCF7, 20 μg/ml, 96 h) | potency relative to 23-epi-26-deoxyactein or cimifugoside (MCF7 cells; MCF7 growth inhibition) | potency relative to cimiracemoside A (MCF7 cells; MCF7 growth inhibition) | cyclin D1 mRNA (RT-PCR) ([1]; 3 h, 20 μg/ml) [fold] | cyclin D1 mRNA (RT-PCR) ([1]; 3 h, 40 μg/ml) [fold] | cyclin D1 mRNA (RT-PCR) ([1]; 10 h, 20 μg/ml) [fold] | cyclin D1 mRNA (RT-PCR) ([1]; 10 h, 40 μg/ml) [fold] | cyclin D1 mRNA (RT-PCR) ([1]; 24 h, 20 μg/ml) [fold] | cyclin D1 mRNA (RT-PCR) ([1]; 24 h, 40 μg/ml) [fold] | liver histology (H&E) [2] | percent inhibition of in vitro Na^+-K^+-ATPase activity (Na^+-K^+-ATPase) [%]
CC(=O)O[C@@H]1C[C@@]23C[C@@]24CC[C@H](O[C@@H]2OC[C@@H](O)[C@H](O)[C@H]2O)C(C)(C)[C@@H]4CC[C@H]3[C@]2(C)C[C@@H]3O[C@]4(C[C@@H](C)[C@@H]3[C@@]12C)O[C@H](O)[C@@]1(C)O[C@@H]41 [actein] | 0.87 | 0.093 | 14 | 21 | 38.0%±3.0 | approximately 1.5 fold | approximately 3 times | 0.91 | 0.94 | 1.1 | 0.93 | 0.84 | 0.66 | hepatotoxicity | –
C[C@H]1O[C@@H](O[C@H]2[C@@H](O)C[C@H](O[C@H]3[C@@H](O)C[C@H](O[C@H]4CC[C@@]5(C)[C@H](CC[C@@H]6[C@@H]5CC[C@]5(C)[C@@H](C7=CC(=O)OC7)CC[C@]65O)C4)O[C@@H]3C)O[C@@H]2C)C[C@H](O)[C@@H]1O [digitoxin] | – | – | – | – | – | – | – | – | – | – | – | – | – | – | 35.2
